Assay results from the supplement of paper PMC6470124.

How the values were obtained:
[1] = absolute recovery over vacuum-assisted evaporative concentration; higher = better recovery; details: enrichment method: VEC
In short: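 Samples of influent (6 mL), effluent (15 mL) and surface or nanopure water (60 mL) were spiked with standards before or after concentration, or left unspiked, at 200 ng/L (nanopure/surface) or 1000 ng/L (wastewater), adjusted by class and compound. Concentration was by evaporation at 55 °C and 20 mbar to about 0.3 mL, followed by adjustment to 0.4 mL and centrifugation. Internal standards were then added for LC-HRMS/MS analysis. Absolute recovery was (response ratio pre − unspiked)/(post − unspiked) × 100, using averages of ≥ 2 replicates.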

[2] = absolute recovery over mixed-bed multilayer solid-phase extraction; higher = better recovery; details: enrichment method: SPE
In short: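 Absolute recovery was calculated by comparing background-corrected response ratios of samples spiked before extraction with those spiked after it, averaged over at least two replicates. Wastewater (100–250 mL, adjusted to pH 6.5 and glass-fibre filtered) or 1000 mL of unfiltered nanopure water was passed through a three-layer mixed-bed cartridge and eluted with basic and then acidic ethyl acetate/methanol. Standards were added before extraction, after extraction, or not at all, at 200 ng/L in water or 1000 ng/L in wastewater, with exceptions for some classes. Internal standards were added afterwards, and samples were analysed by liquid chromatography with high-resolution tandem mass spectrometry in both ionisation modes.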

[3] = LC retention time (Atlantis T3, 5-95% MeOH gradient, 0.1% formic acid); higher = more retained / less polar
In short: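 Retention times were recorded for reference standards on a polar reversed-phase C18 column. The standards were of purity ≥ 95%, and the Atlantis T3 column (3 × 150 mm, 3 μm) was run at 0.3 mL/min with a gradient from 5 to 95% methanol over 17.5 min, both water and methanol containing 0.1% formic acid. Detection used high-resolution tandem mass spectrometry on a QExactive Plus, with positive and negative electrospray in separate runs, and peaks were integrated in TraceFinder (5 ppm tolerance, at least three points per peak) before being checked by hand.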

SMILES	absolute recovery ([1]; wastewater effluent)	absolute recovery ([1]; wastewater influent)	absolute recovery ([2]; nanopure water)	absolute recovery ([2]; surface water)	absolute recovery ([2]; wastewater effluent)	absolute recovery ([2]; wastewater influent)	LC retention time [3]
COCCN(C(=O)C(=O)[O-])c1c(C)cccc1C [Dimethachlor-OXA]	109%	107%	96.8%	88%	92.8%	87.9%	18.2 min
N#Cc1cc(Br)c([O-])c(Br)c1 [Bromoxynil]	101%	90.3%	92.1%	82.5%	86.9%	108%	18.6 min
C[NH+](C)CC(c1ccc(O)cc1)C1(O)CCCCC1 (configuration not stated) [O-Desvenlafaxin]		97.9%	97.4%	89.9%	90.6%	77.7%	12 min
CNC(=O)ON=CC(C)(C)SC [Aldicarb]	99.1%	91.7%	88.2%				16 min
COC(=O)c1ccc(I)cc1S(=O)(=O)[N-]C(=O)Nc1nc(C)nc(OC)n1 [Iodosulfuron-methyl]	116%	102%	107%	96.8%	101%	92.8%	19 min
C[NH2+]CCCC(C#N)(c1ccc(OC)c(OC)c1)C(C)C (configuration not stated) [D617]	101%	100%	89.5%	84.5%	86.9%	81.5%	14 min
O=c1[nH]cc(F)c(=O)[nH]1 [5-Fluorouracil]	79.1%	69.1%	5%	7.7%	7.4%	9.3%	5.37 min
C=C1CC2C(CCC3(C)C(=O)CCC23)C2(C)C=CC(=O)C=C12 (configuration not stated) [Exemestan]	100%	71.7%	91.6%	96%	93.2%	98.3%	19.6 min
Clc1ccc(C(c2ccccc2)N2CC[NH2+]CC2)cc1 (configuration not stated) [1-[(4-Chlorophenyl)phenylmethyl]piperazine]	86.4%	116%	82.7%	84.1%	85.4%	122%	16.2 min
CC[NH+]1CCCC1CNC(=O)c1cc(S(=O)(=O)CC)c(N)cc1OC (configuration not stated) [Amisulprid]	106%	102%	93.1%	94.8%	93.4%	92.7%	10.4 min
CCCCOc1cc(C(=O)NCC[NH+](CC)CC)c2ccccc2n1 [Dibucaine]	92%	136%	99.8%	81.6%	93%		16.2 min
CC=C1[NH+](C)C(C)CC1(c1ccccc1)c1ccccc1 (configuration not stated) [EDDP (=2-Ethylidene-1-5-dimethyl-3-3-diphenylpyrrolidin)]	95%	82.3%	33.8%	65%	60.2%	75.8%	14.4 min
O=C([O-])Cc1ccccc1Nc1c(Cl)cc(O)cc1Cl [4-Hydroxydiclofenac A]	95.8%	92.8%	73.5%	81.4%	76.2%	83.3%	19.2 min
Cc1ccc(C(C)NC(=O)C(NC(=O)OC(C)C)C(C)C)cc1 (configuration not stated) [Iprovalicarb]	89.8%	92.3%	96.4%	85.1%	85.2%	98.8%	20.1 min
CCNc1nc(O)nc(NC(C)C)n1 [Atrazin-2-Hydroxy]	102%	102%	97.8%	98%	94.5%	90%	11.4 min
Cc1ccc(NS(=O)(=O)N(C)C)cc1 [N-N-dimethyl-N-(4-methylphenyl)-sulfamide]	99.5%	104%	94.7%	98%	91.7%	96.1%	17.2 min
O=c1[nH+]c[n-]c2c1ncn2C1CCC(CO)O1 (configuration not stated) [Didanosin]	84.9%		107%	85.1%	83.5%	102%	9.79 min
O=C(C1CCCCC1)N1CC(=O)N2CCc3ccccc3C2C1 (configuration not stated) [Praziquantel]	88.4%	89.8%	98.3%	86.5%	87.2%	98.8%	19.5 min
COc1ccc(C(C[NH3+])C2(O)CCCCC2)cc1 (configuration not stated) [N-N-Didesvenlafaxin]	105%	91%	40.5%	50.1%	44.7%	66.6%	14.1 min
CCOc1ccc2ccccc2c1C(=O)NC1C(=O)N2C1SC(C)(C)C2C(=O)[O-] (configuration not stated) [Nafcillin]	111%	144%	74.1%	27%	36.7%	44.8%	19 min
CCCCCCCCCCCC[N+](C)(C)C [Dodecyltrimethylammonium]	99.1%		84.2%	114%	69.5%	33.9%	17.9 min
CC1(C)SC2C([NH3+])C(=O)N2C1C(=O)[O-] (configuration not stated) [6-Aminopenicillanic-acid]	90.3%	86.7%					4.79 min
CCOP(=O)(OCC)Oc1cc(C)nc(C(C)C)n1 [Diazoxon]	85.6%	95.3%					18.8 min
Cc1cc([N-]S(=O)(=O)c2ccc(N)cc2)no1 [Sulfamethoxazol]	102%	113%					13 min
CC1=C(C(=O)[O-])N2C(=O)C(NC(=O)C([NH3+])c3ccccc3)C2SC1 (configuration not stated) [Cefalexin]	65.2%						20.2 min
CCC(=O)C(CC(C)[NH+](C)C)(c1ccccc1)c1ccccc1 (configuration not stated) [Methadon]	105%	100%					15.9 min
CC(C(=O)[O-])c1cccc(C(=O)c2ccccc2)c1 (configuration not stated) [Ketoprofen]	110%	96.4%					18.8 min
